Converted amounts (≈) assume the structure as drawn.
Tests used:
[1] = estimated by Roy et al., Cryst. Growth & Design 2012 (12), 2122-2126; cited from earlier work
[2] = Aqueous solubility determination (suspension in pure water, HPLC); settings: 25 °C
Procedure: Solubility Determinations:
Solubility determinations were carried out in pure water at 25±2° C. Suspensions with about 10 mg co-crystal in 0.5 mL water were prepared an equilibrated for two hours before the solution phase was filtered off and tested by HPLC.
HPLC was carried out on an Agilent 1100 HPLC chromatograph equipped with a UV-vis detection unit. […] The column type used was a Waters XTerra MS C18, 250×4.6 mm, 5 μm (FK-CC14). The method as referenced above is an isocratic method using an aqueous ammonium acetate/acetic acid and methanol with a ratio of 55/45. The applied flow rate was 1.0 mL per minute, the injection volume was 20 microliter and the detection wavelength was 321 nm.

| SMILES | ratio of the equilibrium solubility of anhydrous Dasatinib free base to Dasatinib monohydrate free base [1] | solubility [2] | solubility at 2 h ([2]; pure water, thermodynamic from solid) |
| --- | --- | --- | --- |
| Cc1nc(Nc2ncc(C(=O)Nc3c(C)cccc3Cl)s2)cc(N2CCN(CCO)CC2)n1 [Dasatinib free base anhydrous form, N-(2-chloro-6-methylphenyl)-2-[[6-[4-(2-hydroxyethyl)-1-piperazinyl]-2-methyl-4-pyrimidinyl]amino]-5-thiazolecarboxamide] | about 2.4 | ~0.9 µg/mL (≈ 1.84 µM) | – |
| Cc1nc(Nc2ncc(C(=O)Nc3c(C)cccc3Cl)s2)cc(N2CCN(CCO)CC2)n1 [Dasatinib free base monohydrate, N-(2-chloro-6-methylphenyl)-2-[[6-[4-(2-hydroxyethyl)-1-piperazinyl]-2-methyl-4-pyrimidinyl]amino]-5-thiazolecarboxamide] | – | – | 0.36 µg/mL |
